Key:
Experiment in all cases: Carna kinase panel screen
Format in all cases: biochemical
Conditions in all cases: read-out: % Inhibition ± SD
[1] = molecular target: T1, PGK (Homo sapiens, UniProt Q13976)
T1 construct: purchased Carna Biosciences
In short: (§1)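 Each compound was tested at 10 concentrations with ATP set close to its Km value. Percentage inhibition at each concentration was calculated and the IC50 derived by four-parameter logistic fitting.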

[2] = molecular target: T2, LCK (Homo sapiens, UniProt P06239)
T2 construct: purchased Carna Biosciences
T2 sequence (P06239 whole entry): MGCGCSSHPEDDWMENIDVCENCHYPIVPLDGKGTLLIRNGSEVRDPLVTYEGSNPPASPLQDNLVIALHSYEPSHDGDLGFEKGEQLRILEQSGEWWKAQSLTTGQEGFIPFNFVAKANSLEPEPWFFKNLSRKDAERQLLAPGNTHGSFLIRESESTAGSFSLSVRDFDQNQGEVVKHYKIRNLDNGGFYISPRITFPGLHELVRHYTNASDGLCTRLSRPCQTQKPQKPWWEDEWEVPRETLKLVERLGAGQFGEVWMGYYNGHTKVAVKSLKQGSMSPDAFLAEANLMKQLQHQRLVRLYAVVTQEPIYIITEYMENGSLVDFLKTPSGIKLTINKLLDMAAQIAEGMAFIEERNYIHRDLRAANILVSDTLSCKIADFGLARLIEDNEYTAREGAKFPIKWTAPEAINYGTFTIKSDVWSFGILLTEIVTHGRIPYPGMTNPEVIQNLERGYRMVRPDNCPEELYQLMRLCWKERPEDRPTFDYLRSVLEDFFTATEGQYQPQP
In short: (§2)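 Ten concentrations per compound, ATP approximately at Km, percent inhibition calculated per well and fitted to a 4-parameter logistic for IC50.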

[3] = molecular target: T3, DYRK1A (Homo sapiens, UniProt Q13627)
T3 construct: purchased Carna Biosciences
In short: as §1

[4] = molecular target: T4, SRPK2 (Homo sapiens, UniProt P78362)
T4 construct: purchased Carna Biosciences
In short: as §1

[5] = molecular target: T5, CHK1 (Homo sapiens, UniProt O14757)
T5 construct: purchased Carna Biosciences
In short: as §2

[6] = molecular target: T6, SRC (Homo sapiens, UniProt P12931)
T6 construct: purchased Carna Biosciences
In short: as §2

[7] = molecular target: T7, NuaK1 (Homo sapiens, UniProt O60285)
T7 construct: purchased Carna Biosciences
In short: as §2

[8] = molecular target: T8, MET (Homo sapiens, UniProt P08581)
T8 construct: purchased Carna Biosciences
T8 sequence (P08581 25-1390): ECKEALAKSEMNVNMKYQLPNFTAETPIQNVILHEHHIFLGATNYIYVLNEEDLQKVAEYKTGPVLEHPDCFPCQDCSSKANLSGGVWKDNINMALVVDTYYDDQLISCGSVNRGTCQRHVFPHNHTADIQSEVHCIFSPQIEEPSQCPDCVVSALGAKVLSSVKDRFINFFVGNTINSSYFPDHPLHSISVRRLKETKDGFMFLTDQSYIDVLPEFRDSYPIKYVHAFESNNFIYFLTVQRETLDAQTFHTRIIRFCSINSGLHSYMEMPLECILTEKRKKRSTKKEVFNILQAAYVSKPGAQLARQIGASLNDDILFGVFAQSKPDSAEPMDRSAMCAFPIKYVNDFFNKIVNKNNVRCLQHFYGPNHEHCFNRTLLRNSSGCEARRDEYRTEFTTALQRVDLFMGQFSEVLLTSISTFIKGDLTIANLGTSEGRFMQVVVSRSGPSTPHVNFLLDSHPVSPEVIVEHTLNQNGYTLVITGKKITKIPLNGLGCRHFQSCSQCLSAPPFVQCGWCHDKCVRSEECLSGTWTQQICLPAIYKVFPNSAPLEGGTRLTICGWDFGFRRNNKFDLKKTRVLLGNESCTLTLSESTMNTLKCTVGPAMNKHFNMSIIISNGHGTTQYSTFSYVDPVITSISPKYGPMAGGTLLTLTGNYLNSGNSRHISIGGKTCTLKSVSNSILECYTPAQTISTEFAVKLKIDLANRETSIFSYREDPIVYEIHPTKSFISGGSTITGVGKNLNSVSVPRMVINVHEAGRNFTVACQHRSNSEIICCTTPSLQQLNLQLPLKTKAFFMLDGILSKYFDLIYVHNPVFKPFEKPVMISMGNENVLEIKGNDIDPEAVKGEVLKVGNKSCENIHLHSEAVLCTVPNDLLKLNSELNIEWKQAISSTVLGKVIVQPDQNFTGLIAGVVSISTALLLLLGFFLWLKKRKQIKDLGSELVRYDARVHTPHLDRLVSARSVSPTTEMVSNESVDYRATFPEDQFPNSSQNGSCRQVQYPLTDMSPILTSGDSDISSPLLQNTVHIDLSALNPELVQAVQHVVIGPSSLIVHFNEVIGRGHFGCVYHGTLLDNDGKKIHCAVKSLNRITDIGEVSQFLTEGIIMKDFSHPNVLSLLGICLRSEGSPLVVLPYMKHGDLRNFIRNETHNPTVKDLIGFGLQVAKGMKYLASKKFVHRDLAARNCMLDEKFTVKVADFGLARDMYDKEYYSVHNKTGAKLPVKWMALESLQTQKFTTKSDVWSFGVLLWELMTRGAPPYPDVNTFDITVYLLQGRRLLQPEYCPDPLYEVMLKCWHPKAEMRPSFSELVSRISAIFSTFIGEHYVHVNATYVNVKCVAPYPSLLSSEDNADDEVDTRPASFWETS
In short: as §2

[9] = molecular target: T9, DYRK2 (Homo sapiens, UniProt Q92630)
T9 construct: purchased Carna Biosciences
T9 sequence (Q92630 whole entry): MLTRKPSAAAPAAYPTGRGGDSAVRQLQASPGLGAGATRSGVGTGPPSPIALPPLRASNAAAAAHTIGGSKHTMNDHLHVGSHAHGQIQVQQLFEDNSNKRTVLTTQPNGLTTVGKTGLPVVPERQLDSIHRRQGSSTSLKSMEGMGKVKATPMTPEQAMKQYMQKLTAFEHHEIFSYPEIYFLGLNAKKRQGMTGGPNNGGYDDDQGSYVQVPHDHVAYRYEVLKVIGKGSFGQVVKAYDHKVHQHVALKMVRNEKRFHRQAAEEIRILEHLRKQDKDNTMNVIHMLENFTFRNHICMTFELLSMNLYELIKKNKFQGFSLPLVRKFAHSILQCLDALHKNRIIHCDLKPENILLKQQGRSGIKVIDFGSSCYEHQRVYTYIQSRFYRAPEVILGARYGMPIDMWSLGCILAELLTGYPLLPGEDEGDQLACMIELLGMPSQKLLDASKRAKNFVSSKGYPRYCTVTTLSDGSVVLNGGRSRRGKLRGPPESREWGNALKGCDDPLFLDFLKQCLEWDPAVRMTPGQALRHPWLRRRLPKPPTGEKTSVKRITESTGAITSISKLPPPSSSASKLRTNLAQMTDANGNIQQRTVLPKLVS
In short: as §2

[10] = molecular target: T10, ROCK2 (Homo sapiens, UniProt O75116)
T10 construct: purchased Carna Biosciences
In short: as §2

[11] = molecular target: T11, DLK (Homo sapiens, UniProt Q12852)
T11 construct: purchased Carna Biosciences
In short: as §2

[12] = molecular target: T12, CK1d (Homo sapiens, UniProt P48730)
T12 construct: purchased Carna Biosciences
In short: as §1

[13] = molecular target: T13, YES (Homo sapiens, UniProt P07947)
T13 construct: purchased Carna Biosciences
T13 sequence (P07947 whole entry): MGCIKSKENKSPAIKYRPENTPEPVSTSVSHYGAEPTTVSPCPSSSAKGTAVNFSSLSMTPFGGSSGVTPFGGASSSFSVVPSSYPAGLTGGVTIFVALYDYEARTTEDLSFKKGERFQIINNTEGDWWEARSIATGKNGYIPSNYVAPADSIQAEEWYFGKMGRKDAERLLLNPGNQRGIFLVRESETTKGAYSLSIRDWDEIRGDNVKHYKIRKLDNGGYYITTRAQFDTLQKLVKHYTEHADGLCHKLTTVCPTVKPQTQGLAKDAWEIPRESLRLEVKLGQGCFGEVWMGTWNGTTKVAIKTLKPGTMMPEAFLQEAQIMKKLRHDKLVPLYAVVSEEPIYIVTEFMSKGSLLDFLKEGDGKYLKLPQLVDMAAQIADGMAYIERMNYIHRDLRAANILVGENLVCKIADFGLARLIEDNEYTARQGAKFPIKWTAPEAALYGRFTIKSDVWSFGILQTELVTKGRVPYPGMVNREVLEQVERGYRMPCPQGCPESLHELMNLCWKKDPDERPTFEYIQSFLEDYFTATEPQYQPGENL
In short: as §2

[14] = molecular target: T14, FMS (Homo sapiens, UniProt P07333)
T14 construct: purchased Carna Biosciences
T14 sequence (P07333 20-972): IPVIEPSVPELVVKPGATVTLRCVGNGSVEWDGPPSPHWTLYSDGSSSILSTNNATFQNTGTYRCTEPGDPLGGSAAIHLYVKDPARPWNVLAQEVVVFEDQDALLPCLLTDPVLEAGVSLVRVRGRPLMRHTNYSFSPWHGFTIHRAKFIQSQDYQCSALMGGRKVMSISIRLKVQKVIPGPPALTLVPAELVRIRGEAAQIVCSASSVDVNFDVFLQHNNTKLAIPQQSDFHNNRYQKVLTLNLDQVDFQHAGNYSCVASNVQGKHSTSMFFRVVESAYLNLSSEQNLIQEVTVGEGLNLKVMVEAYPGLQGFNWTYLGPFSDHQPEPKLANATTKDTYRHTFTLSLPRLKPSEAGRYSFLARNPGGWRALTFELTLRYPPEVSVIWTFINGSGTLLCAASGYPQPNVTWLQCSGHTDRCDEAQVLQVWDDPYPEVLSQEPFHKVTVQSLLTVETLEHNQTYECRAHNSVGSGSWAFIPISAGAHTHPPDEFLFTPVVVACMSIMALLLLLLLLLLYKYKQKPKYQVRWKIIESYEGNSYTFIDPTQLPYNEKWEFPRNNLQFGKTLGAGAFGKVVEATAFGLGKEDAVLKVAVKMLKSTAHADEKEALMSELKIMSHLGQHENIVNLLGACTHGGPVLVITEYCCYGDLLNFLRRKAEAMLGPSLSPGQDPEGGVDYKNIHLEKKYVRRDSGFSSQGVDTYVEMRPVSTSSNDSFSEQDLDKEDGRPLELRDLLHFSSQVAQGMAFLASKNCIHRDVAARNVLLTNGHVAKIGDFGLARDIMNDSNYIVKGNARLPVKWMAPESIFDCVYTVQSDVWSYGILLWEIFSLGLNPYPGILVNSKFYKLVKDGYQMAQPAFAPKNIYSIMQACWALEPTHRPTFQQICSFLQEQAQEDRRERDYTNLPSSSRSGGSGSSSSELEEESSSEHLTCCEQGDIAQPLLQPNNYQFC
In short: as §2

[15] = molecular target: T15, BRSK2 (Homo sapiens, UniProt Q8IWQ3)
T15 construct: purchased Carna Biosciences
In short: as §2

[16] = molecular target: T16, WNK1 (Homo sapiens, UniProt Q9H4A3)
T16 construct: purchased Carna Biosciences
In short: as §2

[17] = molecular target: T17, MUSK (Homo sapiens, UniProt O15146)
T17 construct: purchased Carna Biosciences
In short: as §2

[18] = molecular target: T18, JAK1 (Homo sapiens, UniProt P23458)
T18 construct: purchased Carna Biosciences
In short: as §2

[19] = molecular target: T19, CLK1 (Homo sapiens, UniProt P49759)
T19 construct: purchased Carna Biosciences
In short: as §2

[20] = molecular target: T20, EGFR[T790M] (Homo sapiens, UniProt P00533, T790M)
T20 construct: purchased Carna Biosciences
In short: as §2

[21] = molecular target: T21, PKCd (Homo sapiens, UniProt Q05655)
T21 construct: purchased Carna Biosciences
In short: as §2

[22] = molecular target: T22, ABL[T315I] (Homo sapiens, UniProt P00519, T315I)
T22 construct: purchased Carna Biosciences
In short: as §2

[23] = molecular target: T23, MAP2K7 (Homo sapiens, UniProt O14733)
T23 construct: purchased Carna Biosciences
In short: as §2

[24] = molecular target: T24, BRAF[V600E] (Homo sapiens, UniProt P15056, V600E)
T24 construct: purchased Carna Biosciences
In short: as §2

[25] = molecular target: T25, EphB4 (Homo sapiens, UniProt P54760)
T25 construct: purchased Carna Biosciences
In short: as §2

[26] = molecular target: T26, TXK (Homo sapiens, UniProt P42681)
T26 construct: purchased Carna Biosciences
In short: as §2

[27] = molecular target: T27, FER (Homo sapiens, UniProt P16591)
T27 construct: purchased Carna Biosciences
In short: as §2

[28] = molecular target: T28, MAP2K5 (Homo sapiens, UniProt Q13163)
T28 construct: purchased Carna Biosciences
In short: as §1

[29] = molecular target: T29, SRPK1 (Homo sapiens, UniProt Q96SB4)
T29 construct: purchased Carna Biosciences
T29 sequence (Q96SB4 whole entry): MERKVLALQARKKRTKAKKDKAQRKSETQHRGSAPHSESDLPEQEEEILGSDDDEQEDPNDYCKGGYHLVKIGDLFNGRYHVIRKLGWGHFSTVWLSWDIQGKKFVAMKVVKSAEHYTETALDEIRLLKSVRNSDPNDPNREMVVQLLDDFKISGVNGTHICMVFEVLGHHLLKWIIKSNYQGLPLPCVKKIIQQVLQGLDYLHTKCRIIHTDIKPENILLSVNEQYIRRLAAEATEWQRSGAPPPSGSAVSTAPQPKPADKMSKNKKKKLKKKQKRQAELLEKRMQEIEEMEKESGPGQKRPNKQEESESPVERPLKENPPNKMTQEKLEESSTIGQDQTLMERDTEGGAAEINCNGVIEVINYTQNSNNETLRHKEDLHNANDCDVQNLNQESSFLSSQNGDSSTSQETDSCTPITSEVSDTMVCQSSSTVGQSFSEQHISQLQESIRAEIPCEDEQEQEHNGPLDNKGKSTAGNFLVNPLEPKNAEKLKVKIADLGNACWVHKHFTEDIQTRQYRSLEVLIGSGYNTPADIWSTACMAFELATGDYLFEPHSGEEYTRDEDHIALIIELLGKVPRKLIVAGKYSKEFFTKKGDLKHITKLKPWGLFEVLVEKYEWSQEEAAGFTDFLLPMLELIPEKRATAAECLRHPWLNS
In short: as §2

[30] = molecular target: T30, CDK7 (Homo sapiens, UniProt P50613)
T30 construct: purchased Carna Biosciences
In short: as §2

[31] = molecular target: T31, ITK (Homo sapiens, UniProt Q08881)
T31 construct: purchased Carna Biosciences
In short: as §1

[32] = molecular target: T32, skMLCK (Homo sapiens, UniProt Q9H1R3)
T32 construct: purchased Carna Biosciences
In short: as §2

[33] = molecular target: T33, SGK2 (Homo sapiens, UniProt Q9HBY8)
T33 construct: purchased Carna Biosciences
T33 sequence (Q9HBY8 whole entry): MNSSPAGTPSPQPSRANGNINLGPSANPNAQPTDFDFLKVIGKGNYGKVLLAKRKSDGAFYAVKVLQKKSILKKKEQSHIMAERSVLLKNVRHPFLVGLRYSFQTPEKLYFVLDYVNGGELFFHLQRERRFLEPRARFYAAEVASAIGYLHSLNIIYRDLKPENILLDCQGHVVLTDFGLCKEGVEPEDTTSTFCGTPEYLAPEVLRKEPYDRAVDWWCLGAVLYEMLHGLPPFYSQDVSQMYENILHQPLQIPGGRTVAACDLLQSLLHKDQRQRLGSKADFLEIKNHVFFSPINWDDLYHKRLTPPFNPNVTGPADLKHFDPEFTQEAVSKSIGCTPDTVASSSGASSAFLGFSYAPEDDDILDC
In short: as §2

[34] = molecular target: T34, ALK (Homo sapiens, UniProt Q9UM73)
T34 construct: purchased Carna Biosciences
In short: as §2

[35] = molecular target: T35, NEK2 (Homo sapiens, UniProt P51955)
T35 construct: purchased Carna Biosciences
In short: as §2

[36] = molecular target: T36, KIT (Homo sapiens, UniProt P10721)
T36 construct: purchased Carna Biosciences
In short: as §2

[37] = molecular target: T37, DCAMKL2 (Homo sapiens, UniProt Q8N568)
T37 construct: purchased Carna Biosciences
In short: as §2

[38] = molecular target: T38, PKCh (Homo sapiens, UniProt P24723)
T38 construct: purchased Carna Biosciences
In short: as §2

[39] = molecular target: T39, PDGFRb (Homo sapiens, UniProt P09619)
T39 construct: purchased Carna Biosciences
In short: as §2

[40] = molecular target: T40, BRK (Homo sapiens, UniProt Q13882)
T40 construct: purchased Carna Biosciences
In short: as §2

[41] = molecular target: T41, EphA8 (Homo sapiens, UniProt P29322)
T41 construct: purchased Carna Biosciences
In short: as §1

[42] = molecular target: T42, TRKC (Homo sapiens, UniProt Q16288)
T42 construct: purchased Carna Biosciences
In short: as §2

[43] = molecular target: T43, MAP3K3 (Homo sapiens, UniProt Q99759)
T43 construct: purchased Carna Biosciences
In short: as §2

**Q.** With CC[C@H](Nc1nc(NCc2cnc(C)cc2C)c2ncn(C(C)C)c2n1)[C@@H](C)O [Fadraciclib, 2-pentanol, 3-[[6-[[(4,6-dimethyl-3-pyridinyl)methyl]amino]-9-(1-methylethyl)-9Hpurin-2-yl]amino]-, (2R,3S)] as the compound, how does the inhibition at 1 µM [1] read?
**A.** -21.7 ± 0.2%

**Q.** What about the inhibition at 1 µM [2] of the same compound?
**A.** -7.3 ± 0.1%

**Q.** And the inhibition at 1 µM [3]?
**A.** 5.5 ± 0.7%

**Q.** What about the inhibition at 1 µM [4] of the same compound?
**A.** -3.8 ± 0.1%

**Q.** What about the inhibition at 1 µM [5] of the same compound?
**A.** 1.3%

**Q.** What about the inhibition at 1 µM [6] of the same compound?
**A.** 2.7%

**Q.** And the inhibition at 1 µM [7]?
**A.** -2.5%

**Q.** And the inhibition at 1 µM [8]?
**A.** -8.3 ± 0.1%

**Q.** And the inhibition at 1 µM [9]?
**A.** -1.8 ± 0.1%

**Q.** And the inhibition at 1 µM [10]?
**A.** 4.2%

**Q.** What about the inhibition at 1 µM [11] of the same compound?
**A.** 0.8%

**Q.** What about the inhibition at 1 µM [12] of the same compound?
**A.** 13.8 ± 0.4%

**Q.** And the inhibition at 1 µM [13]?
**A.** -7 ± 0.1%

**Q.** And the inhibition at 1 µM [14]?
**A.** -6.3 ± 0.1%

**Q.** What about the inhibition at 1 µM [15] of the same compound?
**A.** 1.1%

**Q.** And the inhibition at 1 µM [16]?
**A.** -3.3%

**Q.** What about the inhibition at 1 µM [17] of the same compound?
**A.** 11.4 ± 0.3%

**Q.** What about the inhibition at 1 µM [18] of the same compound?
**A.** -3.1%

**Q.** And the inhibition at 1 µM [19]?
**A.** 70.2 ± 6.8%

**Q.** And the inhibition at 1 µM [20]?
**A.** -9.6 ± 0.1%

**Q.** And the inhibition at 1 µM [21]?
**A.** 28.7 ± 2.7%

**Q.** And the inhibition at 1 µM [22]?
**A.** -13 ± 0.1%

**Q.** And the inhibition at 1 µM [23]?
**A.** -10.6 ± 0.6%

**Q.** And the inhibition at 1 µM [24]?
**A.** -1.9 ± 0.1%

**Q.** What about the inhibition at 1 µM [25] of the same compound?
**A.** 3.6 ± 0.1%

**Q.** And the inhibition at 1 µM [26]?
**A.** 3.1 ± 0.1%

**Q.** What about the inhibition at 1 µM [27] of the same compound?
**A.** -0.3%

**Q.** And the inhibition at 1 µM [28]?
**A.** 11.9 ± 1.6%

**Q.** And the inhibition at 1 µM [29]?
**A.** 5.9 ± 0.2%

**Q.** What about the inhibition at 1 µM [30] of the same compound?
**A.** 86.7 ± 10.9%

**Q.** What about the inhibition at 1 µM [31] of the same compound?
**A.** 2.3 ± 0.1%

**Q.** And the inhibition at 1 µM [32]?
**A.** -9.8 ± 1.1%

**Q.** What about the inhibition at 1 µM [33] of the same compound?
**A.** 0.9%

**Q.** And the inhibition at 1 µM [34]?
**A.** -9 ± 0.3%

**Q.** And the inhibition at 1 µM [35]?
**A.** -18.1 ± 0.6%

**Q.** And the inhibition at 1 µM [36]?
**A.** -2.4 ± 0.1%

**Q.** And the inhibition at 1 µM [37]?
**A.** -12.4 ± 0.1%

**Q.** What about the inhibition at 1 µM [38] of the same compound?
**A.** -6.1 ± 0.1%

**Q.** And the inhibition at 1 µM [39]?
**A.** 3.2 ± 0.1%

**Q.** What about the inhibition at 1 µM [40] of the same compound?
**A.** 2.4 ± 0.1%

**Q.** What about the inhibition at 1 µM [41] of the same compound?
**A.** 4.2 ± 0.2%

**Q.** What about the inhibition at 1 µM [42] of the same compound?
**A.** 7.2 ± 0.3%

**Q.** And the inhibition at 1 µM [43]?
**A.** -2.6 ± 0.1%

— publication PMC7347136 (PLoS ONE, 2020)
